Format in all cases: functional
The subject of one experiment is Candida parapsilosis. The experiment is described as follows: Antifungal activity against Candida parapsilosis by microdilution AFST-EUCAST method. The note with it: Lodderomyces parapsilosis. A general note: Broth dilution looks for growth in wells or tubes with falling amounts of substance.
The subject of the next experiment is Candida orthopsilosis. The experiment is described as follows: Antifungal activity against Candida orthopsilosis by microdilution AFST-EUCAST method. The note with it: Lodderomyces orthopsilosis.
A further experiment concerns Candida metapsilosis. The experiment is described as follows: Antifungal activity against Candida metapsilosis by microdilution AFST-EUCAST method. The conditions noted are these: Lodderomyces metapsilosis.

Molecules are shown by their SMILES. Values after ≈ are worked out from the molar mass of the structure shown. Numbered stars: 1 amine (or outer) side, 2 acyl side, 3 side chain; on linkers, the order of the positions; unused ones are H or OH. Bridge positions count the residues as written; N and C are the ends. Square brackets hold non-standard residues; d marks the D form. Peptide text beside a SMILES is read from it. * marks the point of attachment. hTyr(3S-OH,4S-OH,3'-OSO3H) = N[C@H](C(=O)O)[C@H](O)[C@@H](O)c1ccc(O)c(OS(=O)(=O)O)c1; pTerphenylCO(4''-OnC5H11) = CCCCCOc1ccc(-c2ccc(-c3ccc(C(=O)*)cc3)cc2)cc1; Orn(4R-OH,5R-OH) = O=C([C@H](C[C@@H](O)[C@@H](O)N[*:3])N[*:1])[*:2]; hTyr(3S-OH,4S-OH) = N[C@H](C(=O)O)[C@H](O)[C@@H](O)c1ccc(O)cc1; Pro(3S-OH,4S-Me) = C[C@H]1CN[C@H](C(=O)O)[C@H]1O; X1 = CCCCCOc1ccc(-c2cc(-c3ccc(C(=O)*)cc3)no2)cc1; Gln(3R-OH) = NC(=O)C[C@@H](O)[C@H](N)C(=O)O; Hyp = O=C(O)[C@@H]1C[C@@H](O)CN1

As for `C[C@@H]1[C@H](O)[C@@H](C)/C=C/C=C/C=C/C=C/C=C/C=C/C=C/[C@H](O[C@@H]2O[C@H](C)[C@@H](O)[C@H](N)[C@@H]2O)C[C@@H]2O[C@](O)(C[C@@H](O)C[C@@H](O)[C@H](O)CC[C@@H](O)C[C@@H](O)CC(=O)O[C@H]1C)C[C@H](O)[C@H]2C(=O)O` [AMPHOTERICIN B], the MIC (in general, the lowest concentration found to suppress growth) worked out at 0.14 µg/mL (≈ 0.152 µM) with Candida parapsilosis, 0.06 µg/mL (≈ 0.0649 µM) in the experiment on Candida orthopsilosis and 0.08 µg/mL (≈ 0.0866 µM) in the experiment with Candida metapsilosis. The MIC50 (commonly an inhibitory concentration at the 50% level, which refers to growth in some studies and to a panel of isolates in others) in the experiment with Candida parapsilosis amounted to 0.12 µg/mL (≈ 0.13 µM); against Candida orthopsilosis, 0.06 µg/mL (≈ 0.0649 µM); in the experiment on Candida metapsilosis, 0.09 µg/mL (≈ 0.0974 µM).
With `CCCCCOc1ccc(-c2ccc(-c3ccc(C(=O)N[C@H]4C[C@@H](O)[C@@H](O)NC(=O)[C@@H]5[C@@H](O)[C@@H](C)CN5C(=O)[C@H]([C@@H](C)O)NC(=O)[C@H]([C@H](O)[C@@H](O)c5ccc(O)cc5)NC(=O)[C@@H]5C[C@@H](O)CN5C(=O)[C@H]([C@@H](C)O)NC4=O)cc3)cc2)cc1` [ANIDULAFUNGIN] ({pTerphenylCO(4''-OnC5H11)}-[Orn(4R-OH,5R-OH)]T[Hyp][hTyr(3S-OH,4S-OH)]T[Pro(3S-OH,4S-Me)]; lactam 1-C), the MIC with Candida parapsilosis was 0.88 µg/mL (≈ 0.772 µM); against Candida orthopsilosis, 0.38 µg/mL (≈ 0.333 µM); in the experiment on Candida metapsilosis, 0.17 µg/mL (≈ 0.149 µM). Further, the MIC50 against Candida parapsilosis is 1 µg/mL (≈ 0.877 µM); against Candida orthopsilosis, 0.5 µg/mL (≈ 0.438 µM); against Candida metapsilosis it was 0.18 µg/mL (≈ 0.158 µM).
`CC[C@H](C)C[C@H](C)CCCCCCCCC(=O)N[C@H]1C[C@@H](O)[C@@H](NCCN)NC(=O)[C@@H]2[C@@H](O)CCN2C(=O)[C@H]([C@H](O)CCN)NC(=O)[C@H]([C@H](O)[C@@H](O)c2ccc(O)cc2)NC(=O)[C@@H]2C[C@@H](O)CN2C(=O)[C@H]([C@@H](C)O)NC1=O` [CASPOFUNGIN]: the MIC against Candida parapsilosis came to 0.4 µg/mL (≈ 0.366 µM); against Candida orthopsilosis it was 0.16 µg/mL (≈ 0.146 µM); in the experiment on Candida metapsilosis it was 0.22 µg/mL (≈ 0.201 µM). The MIC50 with Candida parapsilosis worked out at 0.5 µg/mL (≈ 0.457 µM); in the experiment on Candida orthopsilosis, 0.12 µg/mL (≈ 0.11 µM); in the experiment on Candida metapsilosis it was 0.25 µg/mL (≈ 0.229 µM).
As for `OC(Cn1cncn1)(Cn1cncn1)c1ccc(F)cc1F` [FLUCONAZOLE], the MIC amounted to 0.37 µg/mL (≈ 1.21 µM) against Candida parapsilosis, 0.5 µg/mL (≈ 1.63 µM) against Candida orthopsilosis and 1.26 µg/mL (≈ 4.11 µM) in the experiment on Candida metapsilosis. The figures for the MIC50 against Candida parapsilosis, in the experiment on Candida orthopsilosis and with Candida metapsilosis were 0.5 µg/mL (≈ 1.63 µM), 0.5 µg/mL (≈ 1.63 µM) and 1 µg/mL (≈ 3.27 µM), respectively.
Regarding `Nc1nc(=O)[nH]cc1F` [FLUCYTOSINE], the minimal inhibitory concentration (MIC) amounted to 0.15 µg/mL (≈ 1.16 µM) with Candida parapsilosis, 0.12 µg/mL (≈ 0.93 µM) with Candida orthopsilosis and 0.14 µg/mL (≈ 1.08 µM) in the experiment with Candida metapsilosis. The MIC50 in the experiment with Candida parapsilosis, with Candida orthopsilosis and in the experiment on Candida metapsilosis was 0.12 µg/mL (≈ 0.93 µM) each time.
As to `CCC(C)n1ncn(-c2ccc(N3CCN(c4ccc(OCC5COC(Cn6cncn6)(c6ccc(Cl)cc6Cl)O5)cc4)CC3)cc2)c1=O` (stereo not given) [ITRACONAZOLE], the minimum inhibitory concentration (MIC) in the experiment with Candida parapsilosis came out at 0.02 µg/mL (≈ 0.0283 µM); in the experiment with Candida orthopsilosis, 0.04 µg/mL (≈ 0.0567 µM); in the experiment on Candida metapsilosis, 0.04 µg/mL (≈ 0.0567 µM). The values for the MIC50 against Candida parapsilosis, against Candida orthopsilosis and against Candida metapsilosis were 0.03 µg/mL (≈ 0.0425 µM), 0.03 µg/mL (≈ 0.0425 µM) and 0.04 µg/mL (≈ 0.0567 µM), respectively.
As to `CCCCCOc1ccc(-c2cc(-c3ccc(C(=O)N[C@H]4C[C@@H](O)[C@@H](O)NC(=O)[C@@H]5[C@@H](O)[C@@H](C)CN5C(=O)[C@H]([C@H](O)CC(N)=O)NC(=O)[C@H]([C@H](O)[C@@H](O)c5ccc(O)c(OS(=O)(=O)O)c5)NC(=O)[C@@H]5C[C@@H](O)CN5C(=O)[C@H]([C@@H](C)O)NC4=O)cc3)no2)cc1` [MICAFUNGIN] (X1-[Orn(4R-OH,5R-OH)]T[Hyp][hTyr(3S-OH,4S-OH,3'-OSO3H)][Gln(3R-OH)][Pro(3S-OH,4S-Me)]; lactam 1-C), the MIC in the experiment on Candida parapsilosis amounted to 0.73 µg/mL (≈ 0.575 µM); against Candida orthopsilosis, 0.25 µg/mL (≈ 0.197 µM); with Candida metapsilosis it was 0.28 µg/mL (≈ 0.22 µM). The MIC50 against Candida parapsilosis turned out to be 1 µg/mL (≈ 0.787 µM); against Candida orthopsilosis, 0.25 µg/mL (≈ 0.197 µM); against Candida metapsilosis it was 0.25 µg/mL (≈ 0.197 µM).
Take `CC[C@@H]([C@H](C)O)n1ncn(-c2ccc(N3CCN(c4ccc(OC[C@@H]5CO[C@@](Cn6cncn6)(c6ccc(F)cc6F)C5)cc4)CC3)cc2)c1=O` [POSACONAZOLE]: the MIC is 0.02 µg/mL (≈ 0.0285 µM) in the experiment with Candida parapsilosis, 0.03 µg/mL (≈ 0.0428 µM) against Candida orthopsilosis and 0.02 µg/mL (≈ 0.0285 µM) in the experiment on Candida metapsilosis. In addition, the MIC50 was found to be 0.02 µg/mL (≈ 0.0285 µM) against Candida parapsilosis, 0.03 µg/mL (≈ 0.0428 µM) in the experiment on Candida orthopsilosis and 0.02 µg/mL (≈ 0.0285 µM) in the experiment on Candida metapsilosis.
On to `C[C@@H](c1nc(-c2ccc(C#N)cc2)cs1)[C@](O)(Cn1cncn1)c1ccc(F)cc1F` [RAVUCONAZOLE], for which the values for the minimum inhibitory concentration (MIC) in the experiment on Candida parapsilosis, against Candida orthopsilosis and against Candida metapsilosis were 0.01 µg/mL (≈ 0.0229 µM), 0.02 µg/mL (≈ 0.0457 µM) and 0.02 µg/mL (≈ 0.0457 µM), respectively. The MIC50 in the experiment on Candida parapsilosis, with Candida orthopsilosis and with Candida metapsilosis was 0.02 µg/mL (≈ 0.0457 µM) each time.
For the compound `C[C@@H](c1ncncc1F)[C@](O)(Cn1cncn1)c1ccc(F)cc1F` [VORICONAZOLE], the results for the minimum inhibitory concentration (MIC) against Candida parapsilosis, in the experiment with Candida orthopsilosis and against Candida metapsilosis were 0.02 µg/mL (≈ 0.0573 µM), 0.03 µg/mL (≈ 0.0859 µM) and 0.03 µg/mL (≈ 0.0859 µM), respectively. The MIC50 against Candida parapsilosis was determined as 0.02 µg/mL (≈ 0.0573 µM); against Candida orthopsilosis it was 0.03 µg/mL (≈ 0.0859 µM); in the experiment with Candida metapsilosis, 0.03 µg/mL (≈ 0.0859 µM).

(Values after ChEMBL document CHEMBL1255323, “Prevalence and susceptibility profile of Candida metapsilosis and Candida orthopsilosis: results from population-based surveillance of candidemia in Spain” (2008).)
